The term IC50 denotes the midpoint of a concentration-inhibition curve.

Sequence of H1047R PIK3CA enzyme (P42336 whole entry H1047R): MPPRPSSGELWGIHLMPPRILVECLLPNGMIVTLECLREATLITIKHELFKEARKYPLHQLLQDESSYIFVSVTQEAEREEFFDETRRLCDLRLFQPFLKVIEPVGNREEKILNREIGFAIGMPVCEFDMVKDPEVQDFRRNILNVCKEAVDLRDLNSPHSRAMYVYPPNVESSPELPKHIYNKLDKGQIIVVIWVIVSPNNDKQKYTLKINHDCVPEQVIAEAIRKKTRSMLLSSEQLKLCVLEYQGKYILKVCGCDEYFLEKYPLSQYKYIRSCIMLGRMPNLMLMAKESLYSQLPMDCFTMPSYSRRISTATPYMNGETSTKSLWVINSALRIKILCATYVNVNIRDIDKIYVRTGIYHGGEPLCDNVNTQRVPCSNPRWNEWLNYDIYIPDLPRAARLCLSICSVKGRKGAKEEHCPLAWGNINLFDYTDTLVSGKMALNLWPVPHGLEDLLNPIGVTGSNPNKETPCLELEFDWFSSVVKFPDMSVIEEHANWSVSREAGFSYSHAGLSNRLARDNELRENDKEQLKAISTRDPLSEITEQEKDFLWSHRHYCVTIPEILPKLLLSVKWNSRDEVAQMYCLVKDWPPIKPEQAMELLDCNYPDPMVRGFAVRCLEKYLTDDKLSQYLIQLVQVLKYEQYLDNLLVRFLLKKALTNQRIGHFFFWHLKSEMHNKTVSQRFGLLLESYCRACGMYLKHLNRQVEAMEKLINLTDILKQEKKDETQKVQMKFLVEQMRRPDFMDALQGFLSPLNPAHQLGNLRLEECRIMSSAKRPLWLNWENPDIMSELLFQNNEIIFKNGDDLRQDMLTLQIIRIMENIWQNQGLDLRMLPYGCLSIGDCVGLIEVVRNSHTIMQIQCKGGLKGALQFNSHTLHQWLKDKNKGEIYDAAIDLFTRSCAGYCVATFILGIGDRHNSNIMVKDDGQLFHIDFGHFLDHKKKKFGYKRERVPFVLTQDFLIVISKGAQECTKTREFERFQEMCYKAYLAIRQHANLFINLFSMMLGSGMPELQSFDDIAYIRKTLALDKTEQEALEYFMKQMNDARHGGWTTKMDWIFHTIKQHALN
Sequence of H1047R PIK3CA enzyme (P27986 whole entry partner): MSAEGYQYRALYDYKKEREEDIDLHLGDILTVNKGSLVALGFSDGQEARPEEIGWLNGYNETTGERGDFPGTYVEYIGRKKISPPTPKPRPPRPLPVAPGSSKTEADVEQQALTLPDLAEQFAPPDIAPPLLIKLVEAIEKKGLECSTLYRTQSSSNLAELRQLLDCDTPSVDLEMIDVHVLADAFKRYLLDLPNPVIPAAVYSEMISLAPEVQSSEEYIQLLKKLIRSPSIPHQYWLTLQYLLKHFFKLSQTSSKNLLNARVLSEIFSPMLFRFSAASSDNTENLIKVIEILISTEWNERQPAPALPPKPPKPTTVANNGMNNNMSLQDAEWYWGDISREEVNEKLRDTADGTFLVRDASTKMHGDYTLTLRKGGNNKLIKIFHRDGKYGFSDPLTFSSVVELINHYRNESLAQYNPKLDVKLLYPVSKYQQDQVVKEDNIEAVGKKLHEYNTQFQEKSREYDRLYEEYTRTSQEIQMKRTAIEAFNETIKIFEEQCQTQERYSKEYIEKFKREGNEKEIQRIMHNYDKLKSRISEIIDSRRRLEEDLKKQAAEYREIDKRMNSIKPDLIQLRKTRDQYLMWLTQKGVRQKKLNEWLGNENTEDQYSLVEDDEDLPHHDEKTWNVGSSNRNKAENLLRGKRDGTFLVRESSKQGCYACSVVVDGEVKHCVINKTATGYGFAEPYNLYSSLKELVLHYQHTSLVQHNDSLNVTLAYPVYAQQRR

The assay concerns the target H1047R PIK3CA enzyme (Homo sapiens, UniProt P42336, H1047R). The experiment in a line: ADP-Glo Biochemical PIK3CA Kinase Assay.
Compound `O=C(Nc1cccc2c1[C@H](C1CC1)NC2=O)c1cc(F)cc(C(F)(F)F)c1` (single isomer, unassigned) [Compound I-2221] returned an IC50 of 10 to 100 µM.

Take `O=C(Nc1cccc2c1[C@@H](C1CCC[C@H](O)C1)NC2=O)c1cc(F)cc(C(F)(F)F)c1` (single isomer, unassigned) [Compound I-2225]: the IC50 is 10 to 100 µM.

As to `C[C@H](O)c1cc(-c2ccc3ncnn3c2)cc2c1[C@@H](c1cc(F)ccc1Cl)NC2=O` (single isomer, unassigned) [Compound I-2228], the IC50 is 10 to 100 µM.

In turn, `C[C@H](O)c1cc(-c2ccc3ncnn3c2)cc2c1[C@H](c1cc(F)ccc1Cl)NC2=O` (single isomer, unassigned) [Compound I-2229] came in with an IC50 of 10 to 100 µM.

As to `C[C@@H](O)c1cc(-c2ccc3ncnn3c2)cc2c1[C@@H](c1cc(F)ccc1Cl)NC2=O` (single isomer, unassigned) [Compound I-2230], the IC50 fell in the range of 10 to 100 µM.

The compound `C[C@@H](O)c1cc(-c2ccc3ncnn3c2)cc2c1[C@H](c1cc(F)ccc1Cl)NC2=O` (single isomer, unassigned) [Compound I-2231] showed an IC50 of 10 to 100 µM.

As for `O=C(Nc1cc(-c2cn3ncnc3cn2)cc2c1[C@@H](c1cc(F)ccc1C(F)F)NC2=O)c1cc(F)cc(C(F)(F)F)c1` (single isomer, unassigned) [Compound I-2233], the IC50 lay in the range of 1 to 10 µM.

The compound `O=C1N[C@H](c2cc(F)ccc2Cl)c2c(NC(=O)N3C[C@H](O)C[C@@H](C(F)(F)F)C3)cccc21` (single isomer, unassigned) [Compound I-2236] yielded an IC50 of 10 to 100 µM.

In turn, `O=C1N[C@@H](c2cc(F)ccc2Cl)c2c(NC(=O)N3C[C@H](O)C[C@@H](C(F)(F)F)C3)cccc21` (single isomer, unassigned) [Compound I-2237] came in with an IC50 of 1 to 10 µM.

The compound `CN1CCN(C(=O)Nc2cc(Br)cc3c2[C@H](c2cc(F)ccc2Cl)NC3=O)CC1(C)C` (single isomer, unassigned) [Compound I-2240] came in with an IC50 of 10 to 100 µM.

The compound `CN1CCN(C(=O)Nc2cc(Br)cc3c2[C@@H](c2cc(F)ccc2Cl)NC3=O)CC1(C)C` (single isomer, unassigned) [Compound I-2241] registered an IC50 of 10 to 100 µM.

Take `O=C1N[C@@H](c2cc(F)ccc2Cl)c2c(NC(=O)N3CCOCC(F)(F)C3)cc(Br)cc21` (single isomer, unassigned) [Compound I-2242]: the IC50 was in the range of 10 to 100 µM.

`O=C1N[C@H](c2cc(F)ccc2Cl)c2c(NC(=O)N3CCOCC(F)(F)C3)cc(Br)cc21` (single isomer, unassigned) [Compound I-2243]: the IC50 lay in the range of 10 to 100 µM.

Turning to `CN1CCN(C(=O)Nc2cc(Br)cc3c2[C@H](c2cc(F)ccc2Cl)NC3=O)CC1` (single isomer, unassigned) [Compound I-2244], the IC50 was 10 to 100 µM.

Turning to `CN1CCN(C(=O)Nc2cc(Br)cc3c2[C@@H](c2cc(F)ccc2Cl)NC3=O)CC1` (single isomer, unassigned) [Compound I-2245], the IC50 was 10 to 100 µM.

Compound `CC(C)(C)N[C@@H]1NC(=O)c2cccc(NC(=O)c3cc(F)cc(C(F)(F)F)c3)c21` (single isomer, unassigned) [Compound I-2247] returned an IC50 of 10 to 100 µM.

`CC(C)(C)N[C@H]1NC(=O)c2cccc(NC(=O)c3cc(F)cc(C(F)(F)F)c3)c21` (single isomer, unassigned) [Compound I-2248] showed an IC50 of 10 to 100 µM.

`O=C(Nc1cccc2c1[C@@H](NC1CCCC1)NC2=O)c1cc(F)cc(C(F)(F)F)c1` (single isomer, unassigned) [Compound I-2249] returned an IC50 of 10 to 100 µM.

`O=C(Nc1cccc2c1[C@H](NC1CCCC1)NC2=O)c1cc(F)cc(C(F)(F)F)c1` (single isomer, unassigned) [Compound I-2250] registered an IC50 of 10 to 100 µM.

`O=C1CCC[C@H]([C@H]2NC(=O)c3cccc(NC(=O)c4cc(F)cc(C(F)(F)F)c4)c32)C1` (single isomer, unassigned) [Compound I-2252] showed an IC50 of 10 to 100 µM.

`O=C1CCC[C@@H]([C@H]2NC(=O)c3cccc(NC(=O)c4cc(F)cc(C(F)(F)F)c4)c32)C1` (single isomer, unassigned) [Compound I-2253] gave an IC50 of 10 to 100 µM.

On to `O=C1CCC[C@H]([C@@H]2NC(=O)c3cccc(NC(=O)c4cc(F)cc(C(F)(F)F)c4)c32)C1` (single isomer, unassigned) [Compound I-2254], for which the IC50 was in the range of 10 to 100 µM.

With `O=C1CCC[C@@H]([C@@H]2NC(=O)c3cccc(NC(=O)c4cc(F)cc(C(F)(F)F)c4)c32)C1` (single isomer, unassigned) [Compound I-2255], the IC50 lay within 10 to 100 µM.

As to `O=C(Nc1cc(-c2cn3ncnc3cn2)cc2c1[C@@H](c1cc(F)ccc1C(F)F)NC2=O)c1cc(F)cc(Cl)c1` (single isomer, unassigned) [Compound I-2258], the IC50 fell in the range of 1 to 10 µM.

Compound `C[C@@]1(C(=O)Nc2cc(Br)cc3c2[C@@H](c2cc(F)ccc2Cl)NC3=O)CCC[C@H](C(F)(F)F)C1` (single isomer, unassigned) [Compound I-2260] registered an IC50 of 0.5 to 1 µM.

In turn, `C[C@]1(C(=O)Nc2cc(Br)cc3c2[C@H](c2cc(F)ccc2Cl)NC3=O)CCC[C@@H](C(F)(F)F)C1` (single isomer, unassigned) [Compound I-2263] registered an IC50 of 1 to 10 µM.

For the compound `C[C@@]1(C(=O)Nc2cc(Br)cc3c2[C@@H](c2cc(F)ccc2Cl)NC3=O)CCC[C@H](C(F)(F)F)C1` (single isomer, unassigned) [Compound I-2264], the IC50 was 0.1 to 0.5 µM.

`C[C@H](c1nn[nH]c1C(=O)Nc1cccc2c1[C@@H](c1cc(F)ccc1Cl)NC2=O)C(F)(F)F` (single isomer, unassigned) [Compound I-2268] had an IC50 of 10 to 100 µM.

`C[C@H](c1nn[nH]c1C(=O)Nc1cccc2c1[C@H](c1cc(F)ccc1Cl)NC2=O)C(F)(F)F` (single isomer, unassigned) [Compound I-2269] displayed an IC50 of 10 to 100 µM.

In the case of `C[C@@H](c1nn[nH]c1C(=O)Nc1cccc2c1[C@@H](c1cc(F)ccc1Cl)NC2=O)C(F)(F)F` (single isomer, unassigned) [Compound I-2270], the IC50 lay within 10 to 100 µM.

The compound `C[C@@H](c1nn[nH]c1C(=O)Nc1cccc2c1[C@H](c1cc(F)ccc1Cl)NC2=O)C(F)(F)F` (single isomer, unassigned) [Compound I-2271] returned an IC50 of 1 to 10 µM.

With `O=C1N[C@H](c2cc(F)ccc2Cl)c2c(NC(=O)[C@H]3C[C@@H](O)C[C@@H](C(F)(F)F)C3)cc(Br)cc21` (single isomer, unassigned) [Compound I-2272], the IC50 was in the range of 10 to 100 µM.

As to `O=C1N[C@@H](c2cc(F)ccc2Cl)c2c(NC(=O)[C@H]3C[C@@H](O)C[C@@H](C(F)(F)F)C3)cc(Br)cc21` (single isomer, unassigned) [Compound I-2273], the IC50 fell in the range of 10 to 100 µM.

Turning to `O=C1N[C@H](c2cc(F)ccc2Cl)c2c(NC(=O)[C@H]3CC(C(F)(F)F)C[C@@H](O)C3)cc(Br)cc21` (single isomer, unassigned) [Compound I-2274], the IC50 lay in the range of 10 to 100 µM.

On to `O=C1N[C@@H](c2cc(F)ccc2Cl)c2c(NC(=O)[C@H]3CC(C(F)(F)F)C[C@@H](O)C3)cc(Br)cc21` (single isomer, unassigned) [Compound I-2275], for which the IC50 lay within 10 to 100 µM.

Regarding `O=C1N[C@H](c2cc(F)ccc2Cl)c2c(NC(=O)N3C[C@@H](CO)[C@H](C(F)(F)F)C3)cccc21` (single isomer, unassigned) [Compound I-2276], the IC50 is 10 to 100 µM.

As for `O=C1N[C@@H](c2cc(F)ccc2Cl)c2c(NC(=O)N3C[C@@H](CO)[C@H](C(F)(F)F)C3)cccc21` (single isomer, unassigned) [Compound I-2277], the IC50 lay in the range of 1 to 10 µM.

As for `O=C1N[C@H](c2cc(F)ccc2Cl)c2c(NC(=O)N3C[C@H](CO)[C@@H](C(F)(F)F)C3)cccc21` (single isomer, unassigned) [Compound I-2278], the IC50 fell in the range of 10 to 100 µM.

Consider `O=C1N[C@@H](c2cc(F)ccc2Cl)c2c(NC(=O)N3C[C@H](CO)[C@@H](C(F)(F)F)C3)cccc21` (single isomer, unassigned) [Compound I-2279], for which the IC50 fell in the range of 10 to 100 µM.

On to `O=C(Nc1cccc2c1[C@@H](C[C@@H]1CCCCN1)NC2=O)c1cc(F)cc(C(F)(F)F)c1` (single isomer, unassigned) [Compound I-2281], for which the IC50 was 10 to 100 µM.

In the case of `CC([C@@H]1C[C@@H](O)CN1C(=O)Nc1cccc2c1C(c1cc(F)ccc1Cl)NC2=O)C(F)(F)F` (single isomer, unassigned) [Compound I-2286], the IC50 was in the range of 0.5 to 1 µM.

Turning to `CC([C@H]1C[C@@H](O)CN1C(=O)Nc1cccc2c1C(c1cc(F)ccc1Cl)NC2=O)C(F)(F)F` (single isomer, unassigned) [Compound I-2287], the IC50 lay in the range of 10 to 100 µM.

`O=C1N[C@@H](c2cc(F)ccc2Cl)c2c(NC(=O)N3C[C@H](O)c4cc(F)c(F)cc43)cccc21` (single isomer, unassigned) [Compound I-2291] returned an IC50 of 1 to 10 µM.

As to `O=C1N[C@H](c2cc(F)ccc2Cl)c2c(NC(=O)N3C[C@H](O)c4cc(F)c(F)cc43)cccc21` (single isomer, unassigned) [Compound I-2292], the IC50 lay within 10 to 100 µM.

The compound `O=C1N[C@H](c2cc(F)ccc2Cl)c2c(NC(=O)N3C[C@H](O)c4cc(F)c(F)cc43)cccc21` (single isomer, unassigned) [Compound I-2294] registered an IC50 of 10 to 100 µM.

Take `O=C1N[C@H](c2cc(F)ccc2Cl)c2c(NC(=O)N3C[C@@H](O)c4c3ccc(F)c4F)cccc21` (single isomer, unassigned) [Compound I-2311]: the IC50 fell in the range of 1 to 10 µM.

`O=C1N[C@@H](c2cc(F)ccc2Cl)c2c(NC(=O)N3C[C@H](O)c4c3ccc(F)c4F)cccc21` (single isomer, unassigned) [Compound I-2312] registered an IC50 of 1 to 10 µM.

Compound `O=C1N[C@@H](c2cc(F)ccc2Cl)c2c(NC(=O)N3C[C@@H](O)c4c3ccc(F)c4F)cccc21` (single isomer, unassigned) [Compound I-2313] returned an IC50 of 1 to 10 µM.

In turn, `O=C(Nc1cccc2c1[C@H]([C@@H]1CCCCCN1)NC2=O)c1cc(F)cc(C(F)(F)F)c1` (single isomer, unassigned) [Compound I-2319] returned an IC50 of 10 to 100 µM.

The values are drawn from US12581252B2, “Substituted pyrrolo[3,4-b]pyridines as PI3K-α inhibitors” (Relay Therapeutics, Inc., priority 2020, dated 2026).
